“And” between values parts separate entries of the source, which are not always exact repeats. Equal values may be shown once.
Key:
C57BL/6 mice [1] = assay: 5′-GNTI-induced scratching; type: in vivo; details: for number of scratches induced: 30 μg/kg s.c.
rKOR [2] = target: T1, rKOR (Rattus norvegicus, UniProt P34975); details: rKOR expressing HEK293; cited from earlier work
hKOR [3] = target: T2, hKOR (Homo sapiens, UniProt P41145); details: hKOR-expressing HEK293 cells; cited from earlier work
rMOR = rMOR (Rattus norvegicus, UniProt P33535); assay: ERK1/2 phosphorylation; type: cell-based
hKOR [4] = target: T2, hKOR; assay: Signaling bias, ERK1/2; type: cell-based; details: ERK1/2 vs p38 phosphorylation, U50,488 as reference
C57BL/6 mice [5] = assay: Acute cross-tolerance to U50,488 in warm-water tail-withdrawal assay; type: in vivo; details: 1 mg/kg i.p. pretreatment
[6] = test system: untransfected HEK293 cells; assay: ERK1/2 and p38 phosphorylation in untransfected HEK293 cells; type: cell-based; details: untransfected HEK293, 1 μM, 5 min (pERK) or 30 min (pp38), n=3
C57BL/6 mice [7] = assay: Locomotor activity; details: 50 μg/kg, n=3; no impairment vs saline (p=0.73)
C57BL/6 mice [8] = assay: Warm-water tail-withdrawal assay; type: in vivo; details: for analgesic response (increase in tail withdrawal latency): 30 min post-injection, wild type C57BL/6; for change in tail withdrawal latency after norBNI pretreatment: norBNI 10 mg/kg 3–5 days prior
rKOR [9] = target: T1, rKOR; assay: Signaling bias, ERK1/2; type: cell-based, rodent; details: ERK1/2 vs p38 phosphorylation, U50,488 as reference

T2 sequence (P41145 whole entry): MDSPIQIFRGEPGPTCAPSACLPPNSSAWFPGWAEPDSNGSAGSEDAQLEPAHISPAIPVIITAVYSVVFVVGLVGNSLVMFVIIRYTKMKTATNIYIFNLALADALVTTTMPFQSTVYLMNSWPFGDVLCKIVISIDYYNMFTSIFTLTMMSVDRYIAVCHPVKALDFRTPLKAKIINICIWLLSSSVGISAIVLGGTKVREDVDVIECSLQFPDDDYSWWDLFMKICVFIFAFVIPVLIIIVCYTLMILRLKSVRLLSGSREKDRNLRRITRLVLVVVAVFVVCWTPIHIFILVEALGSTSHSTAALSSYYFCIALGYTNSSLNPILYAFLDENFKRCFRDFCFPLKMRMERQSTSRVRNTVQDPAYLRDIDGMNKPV
T1 sequence (P34975 whole entry): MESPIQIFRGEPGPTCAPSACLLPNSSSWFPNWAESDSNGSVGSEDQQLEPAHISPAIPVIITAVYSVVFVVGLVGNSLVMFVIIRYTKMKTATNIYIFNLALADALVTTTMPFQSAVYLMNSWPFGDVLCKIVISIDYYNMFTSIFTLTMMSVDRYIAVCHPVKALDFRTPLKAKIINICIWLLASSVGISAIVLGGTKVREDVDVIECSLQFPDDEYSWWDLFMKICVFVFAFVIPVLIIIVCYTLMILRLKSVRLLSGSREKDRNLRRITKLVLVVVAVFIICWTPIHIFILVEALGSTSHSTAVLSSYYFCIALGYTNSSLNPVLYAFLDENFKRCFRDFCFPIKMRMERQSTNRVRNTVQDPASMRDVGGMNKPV
Sequence of rMOR (P33535 whole entry): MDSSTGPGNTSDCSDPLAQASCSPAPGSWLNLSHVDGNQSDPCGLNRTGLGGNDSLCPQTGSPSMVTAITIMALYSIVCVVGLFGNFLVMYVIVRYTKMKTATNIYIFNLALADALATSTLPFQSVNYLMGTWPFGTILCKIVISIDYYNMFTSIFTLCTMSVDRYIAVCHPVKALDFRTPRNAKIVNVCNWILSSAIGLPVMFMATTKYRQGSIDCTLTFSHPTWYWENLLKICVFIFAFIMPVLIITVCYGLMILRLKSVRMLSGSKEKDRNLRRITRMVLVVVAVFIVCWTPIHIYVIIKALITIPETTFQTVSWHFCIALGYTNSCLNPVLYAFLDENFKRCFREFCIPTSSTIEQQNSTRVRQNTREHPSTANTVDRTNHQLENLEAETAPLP

## NC(N)=Nc1ccc2[nH]c3c(c2c1)C[C@@]1(O)[C@H]2Cc4ccc(O)c5c4[C@@]1(CCN2CC1CC1)[C@H]3O5 [5′-GNTI]
C57BL/6 mice [1]; KOR−/− mice, n=8
  number of scratches induced: 550 ± 84 times in 30 min
C57BL/6 mice [1]; wild type mice, n=10
  number of scratches induced: 566 ± 60 times in 30 min

## Oc1ccc2c(c1)[C@@]13CCCC[C@@]1(O)[C@@H](C2)N(CC1CCC1)CC3 [Butorphanol]
rKOR [2]
  signaling bias (in words): G protein biased
hKOR [3]
  signaling bias (in words): p38-biased

## CN(C(=O)/C=C/c1ccoc1)[C@@H]1CC[C@@]2(O)[C@H]3Cc4ccc(O)c5c4[C@@]2(CCN3CC2CC2)[C@H]1O5 [Nalfurafine, (2E)-N-[(5α,6β)-17-(cyclopropylmethyl)-3,14-dihydroxy-4,5-epoxymorphinan-6-yl]-3-(3-furyl)-N methylacrylamide]
rMOR
  EC50: 7.9 nM
C57BL/6 mice [1]; 20 μg/kg s.c. 20 min prior to 5′-GNTI, wild type C57BL/6, n=10, not significant
  5′-GNTI-induced scratching after pretreatment: 556 ± 67 scratches in 30 min
C57BL/6 mice [1]; 50 μg/kg s.c. 20 min prior to 5′-GNTI 30 μg/kg, KOR−/− mice, n=8, not significant
  5′-GNTI-induced scratching after pretreatment: 580 ± 16 times in 30 min
C57BL/6 mice [1]; 50 μg/kg s.c. 20 min prior to 5′-GNTI 30 μg/kg, MOR−/− mice, n=8
  5′-GNTI-induced scratching after pretreatment: 99 ± 40 times in 30 min
C57BL/6 mice [1]; 50 μg/kg s.c. 20 min prior to 5′-GNTI 30 μg/kg, wild type, n=9
  5′-GNTI-induced scratching after pretreatment: 241±33 times in 30 min
hKOR [4]
  ΔΔlog(RA) Mean (SEM): 3.2 (1.02)
C57BL/6 mice [5]; 3 h before U50,488 15 mg/kg i.p.
  cross-tolerance: effect of pretreatment on U50,488-induced analgesia: significantly decreased U50,488-induced analgesia
C57BL/6 mice [5]; 24 h before U50,488 15 mg/kg i.p.
  cross-tolerance: effect of pretreatment on U50,488-induced analgesia: lack of residual analgesic tolerance
[6]
  increase in ERK1/2 or p38 phosphorylation: No significant increase
C57BL/6 mice [7]
  general locomotor activity, distance moved over 30 min: 3531 ± 1215 cm
C57BL/6 mice [8]; 50 μg/kg i.p.
  analgesic response (increase in tail withdrawal latency): 1.5 ± 0.7 s
C57BL/6 mice [8]; 50 μg/kg
  change in tail withdrawal latency after norBNI pretreatment: 0.6 ± 0.1 s
C57BL/6 mice [8]; 150 μg/kg i.p.
  analgesic response (increase in tail withdrawal latency): 1.7 ± 0.4 s
C57BL/6 mice [8]; 150 μg/kg
  change in tail withdrawal latency after norBNI pretreatment: 0.7 ± 0.2 s
rKOR [9]
  Bias factor: 7 and 7.2
  ΔΔlog(RA) Mean (SEM): 1.15 (0.74)

## CC(C)=CCN1CCC2(C)c3cc(O)ccc3CC1C2C (stereo not shown) [Pentazocine]
rKOR [2]
  signaling bias (in words): unbiased
hKOR [4]
  Bias factor: 0.62
  ΔΔlog(RA) Mean (SEM): −0.20 (0.78)
hKOR [3]
  signaling bias (in words): p38-biased
rKOR [9]
  Bias factor: 1.4
  ΔΔlog(RA) Mean (SEM): 0.14 (0.79)

## Oc1ccc2c3c1O[C@H]1c4[nH]c5c(c4C[C@@]4(O)[C@@H](C2)N(CC2CC2)CC[C@]314)C[C@@]1(O)[C@H]2Cc3ccc(O)c4c3[C@@]1(CCN2CC1CC1)[C@H]5O4 [norBNI, norbinaltorphimine]
C57BL/6 mice [8]; norBNI 10 mg/kg 3–5 days prior to U50,488, p < 0.01
  effect on U50,488-mediated increase in withdrawal latency: blocked
C57BL/6 mice [8]; norBNI 10 mg/kg 3–5 days prior to nalfurafine, p < 0.05
  effect on nalfurafine-mediated increase in withdrawal latency: blocked

Source: paper PMC5779083 (Cellular signalling, 2017)
